Data as given in ChEMBL document CHEMBL1133427, “Membrane-permeant, bioactivatable analogues of cGMP as inducers of cell death in IPC-81 leukemia cells” (Bioorg Med Chem Lett, 2000).
Activity calls are given as the source filed them. The rule behind the calls is not given here.

Columns and labels:
Rattus norvegicus = organism: Rattus norvegicus; test: Compound was tested as initiator of cell death in IPC-81 leukemia cells; Inactive; type: functional, cell-based
[1] = Effective dose of compound required to induce death in IPC-81 leukemia cells; Range 40-80; type: functional, cell-based, Rattus norvegicus

SMILES: CC(=O)OCOP1(=O)OC[C@@H]2O[C@@H](n3c(Br)nc4c(O)nc(N)nc43)[C@H](O)[C@@H]2O1 (stereo partly specified)
- Activity (Rattus norvegicus): inactive
- EC50 [1]: 80 µM

SMILES: CC(=O)OCOP1(=O)OC[C@@H]2O[C@@H](N3C(Sc4ccc(Cl)cc4)=NC4C(=O)N=C(N)N=C43)[C@H](O)[C@@H]2O1 (stereo partly specified)
- Activity (Rattus norvegicus): inactive

SMILES: CC(=O)OCOP1(=O)OCC2OC(n3cnc4c(=O)n(C)c(N)nc43)CC(O)C2O1 (stereo unspecified)
- Activity (Rattus norvegicus): inactive

SMILES: CC(=O)OCOP1(=O)OC[C@@H]2O[C@@H](n3cnc4c(=O)n(C)c(N)nc43)[C@H](O)[C@@H]2O1 (stereo partly specified)
- Activity (Rattus norvegicus): inactive
- EC50 [1]: 80 µM
